Assay results reported in patent US20210292347A1, “DIHETEROCYCLIC TRIAZINONE NUCLEOSIDE ANALOGS AND THEIR USE FOR MEDICATION” (priority 2020, published 2021).
pIC50: −log10 of the molar value. Values after ≈ are worked out from the molar mass of the structure shown. Like-named read-outs stand apart in the source and are kept apart here.

Key:
[1] = test system: human breast cancer cell line MCF7; assay: cells; type: cell-based; conditions: MCF7, 48 h, read-out: IC50 and 95% confidence limit, MCF7 cells
Experimental: (§1) Cell lines: Human pancreatic cancer cell line Panc-1, human colorectal cancer cell line HT29, human lung cancer cell line NCI-H460 and human breast cancer cell line MCF7; the medium: s DMEM (Gibco BRL), containing 10% fetal calf serum (Gibco BRL) and 2 mM L-glutamine (Gibco BRL).
(§2) Test samples: example compounds 7, 15, 82, 89, 116 and 135. The samples were dissolved in dimethyl sulfoxide (DMSO, Sigma, United States) and medium was added to the final concentration of 0.5%. Cyclophosphamide ware as positive control (Aldrich, United States, purity>96%).
(§3) General Method: cells were digested with trypsin and dispersed into single cells in the medium containing penicillin (25 U/ml) and streptomycin (25 μg/mL). The cells were seeded in 96-well culture plates (Corning Incorporated), at 37° C., with 5% CO2 present for 24 hours. The culture medium was removed, […] test compounds were added, cultured for 48 hours. Culture medium was removed and […] (MTT, USA Sigma products) was added. The result was assayed by SK601-based microplate reader (Japan Seikagaku company's products), 570 nm/630 nm optical density (OD). Cell viability determined by the formula: (Experimental group OD/control OD)×100%; CTX and the positive control subjects treated in the same material simultaneously.

[2] = test system: human lung cancer cell line NCI-H460; assay: cells; type: cell-based; conditions: Homo sapiens, NCI-H460, 48 h
Experimental: as §1, §2, §3

[3] = test system: mice sarcoma S180; assay: Growth inhibition of S180 sarcoma in mice; type: in vivo, Kunming healthy mice; conditions: for in-vivo anti-tumor efficacy, statistical significance (in words): S180 sarcoma in mice, doses and routes of Table 3
[4] = Mus musculus, S-180, mice, iv, read-out: Inhibition rate (%) S180 sarcoma
[5] = Mus musculus, S-180, mice, ip, read-out: Inhibition rate (%) S180 sarcoma

O=P1(N(CCCl)CCCl)NCCCO1 (centres unmarked) [CTX, Cyclophosphamide, reference compound]
IC50 [1]: 0.92 µg/mL (≈ 3.52 µM) | pIC50 ([2]; read-out: IC50 Lung cancer NCI-H460): 5.37 | IC50 ([2]; read-out: IC50 and 95% confidence limit, NCI-H460 cells): 4.3 µg/mL | inhibition in vivo at 15 mg/kg [3, 4]: < 40%

CCCc1nn(CO)c2c(=O)n(C3CSC(CO)O3)nnc12 (centres unmarked) [Example 94, 5-(hydroxymethyl)-3-(2-(hydroxymethyl)-1,3-oxathiolan-5-yl)-7-propyl-3H-pyrazolo[4,3-d][1,2,3]triazin-4(5H)-one]
inhibition in vivo at 30 mg/kg ([3]; Mus musculus, S-180, mice, iv, 30 mg/kg, read-out: Inhibition rate (%) S180 sarcoma): < 40% | in-vivo anti-tumor efficacy, statistical significance (in words) [3]: statistically significant

CCCc1nn(CC(N)=O)c2c(=O)n(C3CSC(CO)O3)nnc12 (centres unmarked) [Example 95, 2-(3-(2-(hydroxymethyl)-1,3-oxathiolan-5-yl)-4-oxo-7-propyl-3H-pyrazolo[4,3-d][1,2,3]triazin-5(4H)-yl)acetamide]
inhibition in vivo at 50 mg/kg [3, 4]: < 40% | in-vivo anti-tumor efficacy, statistical significance (in words) [3]: statistically significant

CCCc1nn(C(N)=O)c2c(=O)n(C3CSC(CO)O3)nnc12 (centres unmarked) [Example 97, 3-(2-(hydroxymethyl)-1,3-oxathiolan-5-yl)-4-oxo-7-propyl-3H-pyrazolo[4,3-d][1,2,3]triazine-5(4H)-carboxamide]
inhibition in vivo at 100 mg/kg [3, 5]: < 40% | in-vivo anti-tumor efficacy, statistical significance (in words) [3]: statistically significant

NC(=O)n1nc(N)c2nnn(C3CSC(CO)O3)c(=O)c21 (centres unmarked) [Example 98, 7-amino-3-(2-(hydroxymethyl)-1,3-oxathiolan-5-yl)-4-oxo-3H-pyrazolo[4,3-d][1,2,3]triazine-5(4H)-carboxamide]
inhibition in vivo at 70 mg/kg ([3]; Mus musculus, S-180, mice, ip, 70 mg/kg, read-out: Inhibition rate (%) S180 sarcoma): < 20%

CN(C)CCC(=O)Nc1nn(C(N)=O)c2c(=O)n(C3CSC(CO)O3)nnc12 (centres unmarked) [Example 99, 7-(3-(dimethylamino)propanamido)-3-(2-(hydroxymethyl)-1,3-oxathiolan-5-yl)-4-oxo-3H-pyrazolo[4,3-d][1,2,3]triazine-5(4H)-carboxamide]
inhibition in vivo at 150 mg/kg ([3]; Mus musculus, S-180, mice, ip, 150 mg/kg, read-out: Inhibition rate (%) S180 sarcoma): < 20%

CCCc1nn(C(=N)N)c2c(=O)n(C3CSC(CO)O3)nnc12 (centres unmarked) [Example 100, 3-(2-(hydroxymethyl)-1,3-oxathiolan-5-yl)-4-oxo-7-propyl-3H-pyrazolo[4,3-d][1,2,3]triazine-5(4H)-carboximidamide]
inhibition in vivo at 100 mg/kg [3, 5]: < 40% | in-vivo anti-tumor efficacy, statistical significance (in words) [3]: statistically significant

CCCc1nn(O)c2c(=O)n(C3OC(COC(C(=O)O)P(=O)(NC(C)C)NC(C)C)C(O)C3O)nnc12 (centres unmarked) [Example 103, 2-(bis(isopropylamino)phosphoryl)-2-((3,4-dihydroxy-5-(5-hydroxy-4-oxo-7-propyl-4,5-dihydro-3H-pyrazolo[4,3-d][1,2,3]triazin-3-yl)tetrahydrofuran-2-yl)methoxy)acetic acid]
inhibition in vivo at 100 mg/kg [3, 5]: < 20%

CCCc1nn(C)c2c(=O)n(C3OC(COC(C(=O)O)P(=O)(NC(C)C)NC(C)C)C(O)C3O)nnc12 (centres unmarked) [Example 106, 2-(bis(isopropylamino)phosphoryl)-2-((3,4-dihydroxy-5-(5-methyl-4-oxo-7-propyl-4,5-dihydro-3H-pyrazolo [4,3-d][1,2,3]triazin-3-yl)tetrahydrofuran-2-yl)methoxy)acetic acid]
inhibition in vivo at 50 mg/kg [3, 4]: < 20%

CCCc1nn(O)c2c(=O)n(C3OC(COC(C(=O)O)P(NC(C)C)OCC#N)C(O)C3O)nnc12 (centres unmarked) [Example 117, 2-((cyanomethoxy)(isopropylamino)phosphino)-2-((3,4-dihydroxy-5-(5-hydroxy-4-oxo-7-propyl-4,5-dihydro-3H-pyrazolo [4,3-d][1,2,3]triazin-3-yl)tetrahydrofuran-2-yl)methoxy)acetic acid]
inhibition in vivo at 15 mg/kg [3, 4]: < 40% | in-vivo anti-tumor efficacy, statistical significance (in words) [3]: statistically significant

CCCc1nn(C)c2c(=O)n(C3OC(COC(C(=O)O)P(NC(C)C)OCC#N)C(O)C3O)nnc12 (centres unmarked) [Example 120, 2-((cyanomethoxy)(isopropylamino)phosphino)-2-((3,4-dihydroxy-5-(5-methyl-4-oxo-7-propyl-4,5-dihydro-3H-pyrazolo[4,3-d][1,2,3]triazin-3-yl)tetrahydrofuran-2-yl)methoxy)acetic acid]
inhibition in vivo at 12.5 mg/kg ([3]; Mus musculus, S-180, mice, iv, 12.5 mg/kg, read-out: Inhibition rate (%) S180 sarcoma): < 40% | in-vivo anti-tumor efficacy, statistical significance (in words) [3]: statistically significant

CCCc1nn(C)c2c(=O)n(COC(CO)CO)nnc12 [Example 126, 3-(((1,3-dihydroxypropan-2-yl)oxy)methyl)-5-methyl-7-propyl-3H-pyrazolo[4,3-d][1,2,3]triazin-4(5H)-one]
inhibition in vivo at 50 mg/kg [3, 4]: < 20%

CN(C)CCC(=O)Nc1nn(CC(N)=O)c2c(=O)n(COC(CO)CO)nnc12 [Example 129, N-(5-(2-amino-2-oxoethyl)-3-(((1,3-dihydroxypropan-2-yl)oxy)methyl)-4-oxo-4,5-dihydro-3H-pyrazolo[4,3-d][1,2,3]triazin-7-yl)-3-(dimethylamino) propanamide]
inhibition in vivo at 100 mg/kg [3, 5]: < 20%

CCCc1nn(C(=N)N)c2c(=O)n(C3OC(COP(=O)(O)OP(=O)(O)OP(=O)(O)O)C(O)C3O)nnc12 (centres unmarked) [Example 140, (5-(5-carbamimidoyl-4-oxo-7-propyl-4,5-dihydro-3H-pyrazolo[4,3-d][1,2,3]triazin-3-yl)-3,4-dihydroxytetrahydrofuran-2-yl)methyl tetrahydrogen triphosphate]
inhibition in vivo at 200 mg/kg [3, 5]: < 20%

CCCn1nnc2nnn(C3OC(CO)C(O)C3O)c(=O)c21 (centres unmarked) [Example 147, 6-(3,4-dihydroxy-5-(hydroxymethyl)tetrahydrofuran-2-yl)-1-propyl-1H-[1,2,3]triazolo[4,5-d][1,2,3]triazin-7(6H)-one]
inhibition in vivo at 300 mg/kg ([3]; Mus musculus, S-180, mice, ip, 300 mg/kg, read-out: Inhibition rate (%) S180 sarcoma): < 20%

O=c1c2c(nnn1C1OC(CO)C(O)C1O)nnn2CO (centres unmarked) [Example 148, 6-(3,4-dihydroxy-5-(hydroxymethyl)tetrahydrofuran-2-yl)-1-(hydroxymethyl)-1H-[1,2,3]triazolo[4,5-d][1,2,3]triazin-7(6H)-one]
inhibition in vivo at 200 mg/kg [3, 5]: < 20%

CCCn1nnc2c(=O)n(C3OC(CO)C(O)C3O)nnc21 (centres unmarked) [Example 151, 6-(3,4-dihydroxy-5-(hydroxymethyl)tetrahydrofuran-2-yl)-3-propyl-3H-[1,2,3]triazolo[4,5-d][1,2,3]triazin-7(6H)-one]
inhibition in vivo at 200 mg/kg [3, 5]: < 20%

O=c1c2nnn(CO)c2nnn1C1OC(CO)C(O)C1O (centres unmarked) [Example 152, 6-(3,4-dihydroxy-5-(hydroxymethyl)tetrahydrofuran-2-yl)-3-(hydroxymethyl)-3H-[1,2,3]triazolo[4,5-d][1,2,3]triazin-7(6H)-one]
inhibition in vivo at 400 mg/kg ([3]; Mus musculus, S-180, mice, ip, 400 mg/kg, read-out: Inhibition rate (%) S180 sarcoma): < 20%

CCCn1nnc2c(=O)n(C3CCC(COC(C(=O)O)P(=O)(NC(C)C)NC(C)C)O3)nnc21 (centres unmarked) [Example 154, 2-(bis(isopropylamino)phosphoryl)-2-((5-(7-oxo-3-propyl-3H-[1,2,3]triazolo[4,5-d][1,2,3]triazin-6(7H)-yl)tetrahydrofuran-2-yl)methoxy)acetic acid]
inhibition in vivo at 100 mg/kg [3, 5]: < 20%

CC(=O)O[C@H]1C(=O)[C@@]2(C)[C@H]([C@H](OC(=O)c3ccccc3)[C@]3(O)C[C@H](OC(=O)[C@H](O)[C@@H](NC(=O)c4ccccc4)c4ccccc4)C(C)=C1C3(C)C)[C@]1(OC(C)=O)CO[C@@H]1C[C@@H]2O [Taxol, Paclitaxel, reference compound]
inhibition in vivo at 20 mg/kg ([3]; Mus musculus, S-180, mice, ip, 20 mg/kg, read-out: Inhibition rate (%) S180 sarcoma): < 40%
